± gives the standard deviation of the averaged measurements.
Legend:
Conditions in all cases: 72 h
HepG2 [1] = experiment: cell viability relative to DMSO; higher = less toxic
Calu-3 [2] = experiment: as above
Caco-2 [3] = experiment: as above
Vero E6 [4] = experiment: as above
HepG2 [5] = experiment: relative viability EC50 (midpoint between 100% and the lowest measured viability); higher = less toxic
Calu-3 [6] = experiment: as above
Caco-2 [7] = experiment: as above
Vero E6 [8] = experiment: as above
HepG2 [9] = experiment: drug sensitivity score (DSS) for viability; higher = more toxic; extreme values may be limits of the assay
Calu-3 [10] = experiment: as above
Caco-2 [11] = experiment: as above
Vero E6 [12] = experiment: as above
U2OS [13] = experiment: cell viability relative to DMSO; higher = less toxic
U2OS [14] = experiment: relative viability EC50 (midpoint between 100% and the lowest measured viability); higher = less toxic
U2OS [15] = experiment: drug sensitivity score (DSS) for viability; higher = more toxic; extreme values may be limits of the assay

Row | Compound | cell viability (HepG2 [1]; 1 nM) [%] | cell viability (HepG2 [1]; 10 nM) [%] | cell viability (HepG2 [1]; 100 nM) [%] | cell viability (HepG2 [1]; 1000 nM) [%] | cell viability (HepG2 [1]; 10000 nM) [%] | cell viability (Calu-3 [2]; 1 nM) [%] | cell viability (Calu-3 [2]; 10 nM) [%] | cell viability (Calu-3 [2]; 100 nM) [%] | cell viability (Calu-3 [2]; 1000 nM) [%] | cell viability (Calu-3 [2]; 10000 nM) [%] | cell viability (Caco-2 [3]; 1 nM) [%] | cell viability (Caco-2 [3]; 10 nM) [%] | cell viability (Caco-2 [3]; 100 nM) [%] | cell viability (Caco-2 [3]; 1000 nM) [%] | cell viability (Caco-2 [3]; 10000 nM) [%] | cell viability (Vero E6 [4]; 1 nM) [%] | cell viability (Vero E6 [4]; 10 nM) [%] | cell viability (Vero E6 [4]; 100 nM) [%] | cell viability (Vero E6 [4]; 1000 nM) [%] | cell viability (Vero E6 [4]; 10000 nM) [%] | relative viability EC50 (HepG2 [5]) [µM] | relative viability EC50 (Calu-3 [6]) [µM] | relative viability EC50 (Caco-2 [7]) [µM] | relative viability EC50 (Vero E6 [8]) [µM] | drug sensitivity score (HepG2 [9]) | drug sensitivity score (Calu-3 [10]) | drug sensitivity score (Caco-2 [11]) | drug sensitivity score (Vero E6 [12]) | cell viability (U2OS [13]; 1 nM) [%] | cell viability (U2OS [13]; 10 nM) [%] | cell viability (U2OS [13]; 100 nM) [%] | cell viability (U2OS [13]; 1000 nM) [%] | cell viability (U2OS [13]; 10000 nM) [%] | relative viability EC50 (U2OS [14]) [µM] | drug sensitivity score (U2OS [15])
1 | CC1=C(/C=C/C(=C/C=C/C(C)=C/C(=O)O)c2ccc(C)cc2)C(C)(C)CCC1 | 106 | 103 | 98.2 | 94.2 | 98.4 | 94.6 | 106 | 112 | 102 | 99.3 | 90.9 | 94.2 | 95.4 | 98.4 | 97.1 | 99.1 | 95.2 | 101 | 97.2 | 108 | > 10 | > 10 | > 10 | > 10 | 0 | 0 | 0 | 0 |  |  |  |  |  |  | 
2 | C[C@]12N[C@H](Cc3ccccc31)c1ccccc12 [dizocilpine-(-)] | 99.4 ± 0.28 | 97.7 ± 4.1 | 102 ± 9.9 | 95 ± 4.2 | 73.8 ± 28 | 97.8 ± 11 | 96.6 ± 3 | 101 ± 7.7 | 96.8 ± 6.1 | 98.5 ± 11 | 98.7 ± 0.42 | 94.5 ± 1.2 | 97.7 ± 1.8 | 102 ± 6.2 | 99.5 ± 5 | 95.8 | 97.2 | 101 | 93 | 97 |  | > 10 | > 10 | > 10 | 1.85 ± 2.6 | 0 | 0 | 0 | 98.1 ± 5.1 | 104 ± 3.2 | 97.4 ± 1.7 | 100.7 ± 0.92 | 95.4 ± 1.4 | > 10 | 0
3 | Cc1cc(C)c(S(=O)(=O)n2cc(C)cc2C)c(C)c1 [HJC-0350] |  |  |  |  |  | 93.7 | 99.4 | 92.9 | 103 | 96.5 | 95.5 | 98.2 | 93.6 | 96.6 | 93.2 | 97.5 | 99.5 | 98.6 | 95.5 | 96.2 |  | > 10 | > 10 | > 10 |  | 0 | 0 | 0 | 97.4 | 98.2 | 102 | 106 | 93.4 | > 10 | 0
4 | Cc1ccc(OCCSc2ncccn2)c(Br)c1 [ZLN024] | 105 | 106 | 109 | 99.9 | 110 |  |  |  |  |  | 99.2 | 104 | 94.8 | 97 | 102 | 106 | 98.2 | 107 | 102 | 105 | > 10 |  | > 10 | > 10 | 0 |  | 0 | 0 | 97.8 | 105 | 97.1 | 101 | 101 | > 10 | 0
5 | O=C(O)Cc1sc(-c2ccccc2)nc1-c1ccc(Cl)cc1 [fentiazac] | 95.3 | 103 | 97.6 | 103 | 94.9 |  |  |  |  |  | 100 | 98.9 | 92.6 | 97.6 | 95.3 | 99.3 | 101 | 96 | 99.7 | 92.2 | > 10 |  | > 10 | > 10 | 0 |  | 0 | 0 | 99 | 98.7 | 95.2 | 93.9 | 92.4 | > 10 | 0
6 | COc1cc(OCc2cccc(-c3ccccc3)c2C)cc(OC)c1CN1CCCC[C@H]1C(=O)O [PD1-PDL-inhibitor-1] |  |  |  |  |  | 98.2 | 99.1 | 98.1 | 102 | 102 | 104 | 94.5 | 94.4 | 96.3 | 102 | 99.5 | 106 | 99.3 | 105 | 103 |  | > 10 | > 10 | > 10 |  | 0 | 0 | 0 | 99.3 | 98.7 | 101 | 99 | 95.8 | > 10 | 0
7 | O=c1cc[nH]c(=S)[nH]1 [2-thiouracil] |  |  |  |  |  | 102 | 110 | 95.2 | 95.7 | 100 | 111 | 85.8 | 97.1 | 99 | 102 | 108 | 98.6 | 99.5 | 108 | 93.8 |  | > 10 | > 10 | > 10 |  | 0 | 0 | 0 | 98.5 | 96.4 | 99.7 | 97.5 | 98.6 | > 10 | 0
8 | N#Cc1c(N)nc(SCC(N)=O)c(C#N)c1-c1ccc(OCC2CC2)cc1 [BAY-60-6583] | 102 | 98.1 | 101 | 102 | 92.6 |  |  |  |  |  | 104 | 102 | 102 | 95.9 | 99.1 | 99.4 | 94.7 | 93.3 | 96.6 | 93.7 | > 10 |  | > 10 | > 10 | 0 |  | 0 | 0 | 106 | 100 | 101 | 98.7 | 99.4 | > 10 | 0
9 | O=C1[C@H](CC[C@H](O)c2ccc(F)cc2)[C@@H](c2ccc(O)cc2)N1c1ccc(F)cc1 [ezetimibe] | 103 | 96.6 | 100 | 90.8 | 88.8 |  |  |  |  |  | 97.6 | 98.1 | 93.3 | 95.9 | 88.9 | 99.6 | 106 | 100 | 100 | 107 | > 10 |  | > 10 | > 10 | 0.2 |  | 0 | 0 | 95.9 | 101 | 95.8 | 104 | 91 | > 10 | 0
10 | CN(C)c1ccc(/C=C2\C(=O)Nc3ccccc32)cc1 [SU4312] | 96 | 92.4 | 95.1 | 69.5 | 89.7 | 97.7 | 94.3 | 96.4 | 88.4 | 91.8 | 96.3 | 106 | 97.5 | 90.6 | 79.6 | 106 | 99.6 | 103 | 103 | 89.3 |  | > 10 | > 10 | > 10 | 2 | 0 | 1.2 | 0 | 99.3 | 105 | 94.8 | 96.9 | 90 | > 10 | 0
11 | COc1ccc2c(c1)C=C1Cn3c-2c(C2CCCCC2)c2ccc(cc23)C(=O)NS(=O)(=O)N(C)CCOCCN(C)C1=O | 97.3 | 93.5 | 106 | 97 | 105 |  |  |  |  |  | 93.7 | 91.1 | 99 | 102 | 94.2 | 101 | 97.3 | 96.3 | 102 | 95.3 | > 10 |  | > 10 | > 10 | 0 |  | 0 | 0 | 102 | 100 | 95.8 | 96.5 | 95.3 | > 10 | 0
12 | O=C1NC(=O)C(=Cc2ccc(-c3ccc(F)cc3)o2)S1 (stereo in doubt) | 104 | 111 | 99.4 | 94 | 100 |  |  |  |  |  | 99.2 | 97.9 | 104 | 95.3 | 90.4 | 97.7 | 102 | 95.8 | 91.5 | 89.1 | > 10 |  | > 10 | > 10 | 0 |  | 0 | 0.1 | 95.3 | 98.5 | 99.9 | 97.5 | 98.1 | > 10 | 0
13 | C[C@@H](CN(C)C)CN1c2ccccc2Sc2ccccc21 (racemic) [alimemazine] | 105 | 101 | 104 | 104 | 70.9 | 97.5 | 94.8 | 101 | 105 | 83.4 | 112 | 100 | 97.8 | 108 | 80.4 | 100 | 98.1 | 99.4 | 88.9 | 77.2 |  | > 10 | > 10 | > 10 | 1 | 0.2 | 0.3 | 1.9 | 103 | 95 | 103 | 97 | 94.3 | > 10 | 0
14 | C[C@H](N[C@@H](CCc1ccccc1)C(=O)O)C(=O)N1CCC[C@H]1C(=O)O [enalaprilat] |  |  |  |  |  | 101 | 101 | 105 | 89 | 97.2 | 92.8 | 104 | 90.1 | 97.5 | 94.7 | 97.5 | 94.5 | 99.1 | 101 | 107 |  | > 10 | > 10 | > 10 |  | 0.2 | 0 | 0 | 96.5 | 97.9 | 94.9 | 96.7 | 104 | > 10 | 0
15 | NCCCCN [putrescine] | 110 | 101 | 110 | 97.3 | 93 |  |  |  |  |  | 118 | 102 | 102 | 89 | 93.1 | 104 | 112 | 100 | 98.1 | 90.4 | > 10 |  | > 10 | > 10 | 0 |  | 0.2 | 0 | 99.2 | 97.1 | 97.6 | 93.6 | 96.7 | > 10 | 0
16 | NCc1ccccc1CC(=O)N[C@@H]1C(=O)N2C(C(=O)O)=C(CSc3nnnn3CC(=O)O)CS[C@H]12 [ceforanide] | 99.5 | 106 | 109 | 98 | 106 |  |  |  |  |  | 88.4 | 92.9 | 102 | 99.3 | 100 | 97.3 | 98 | 96.8 | 93.8 | 103 | > 10 |  | > 10 | > 10 | 0 |  | 0 | 0 | 96.3 | 97.3 | 100 | 102 | 103 | > 10 | 0

From the supplement of paper PMC13380429
